# Source: patent publication US7964624B1, “Inhibitors of serine proteases” (priority 2005, dated 2011)
# What was measured:
# [1] = biological target: T1, full-length hepatitis C viral protein NS3•4A (Hepatitis C virus genotype 1a, UniProt P27958); experiment: biochemical; design: species or system HCV sub-type strain 1a; conditions: Enzyme Assay 2 (HCV NS3 Peptide Cleavage Assay) activity, apparent Ki class
# T1 construct: hexa-histidine (N); made in house; host or cells: Sf9 insect cells (baculovirus, pVL1392)
# [2] = biological target: T2, HCV NS3 protease domain (Hepatitis C virus genotype 1b, UniProt Q9WMX2); experiment: biochemical; conditions: Enzyme Assay 1 (HCV NS3 Protease Domain Peptide Cleavage Assay) activity, apparent Ki class
# T2 construct: The first 181 amino acids of NS3 (residues 1027-1207 of the viral polyprotein); hexa-histidine (C); made in house; host or cells: E. coli BL21/DE3 pLysS
Structure (SMILES),Ki [1] [µM],Ki [2] [µM]
C=C[C@@H]1C[C@]1(NC(=O)[C@@H]1C[C@]2(CC(c3cccc(Cl)c3)=NO2)CN1C(=O)[C@@H](NC(=O)OC(C)(C)C)C(C)(C)C)C(=O)O [Compound 439],> 0.5,> 0.5
CCC[C@H](NC(=O)[C@@H]1C[C@]2(CC(c3cccc(Cl)c3)=NO2)CN1C(=O)[C@@H](NC(=O)CC1CCCCC1)C(C)(C)C)C(=O)C(=O)NCc1ccco1 [Compound 441],0.1 to 0.5,> 0.5
CCC[C@H](NC(=O)[C@@H]1C[C@]2(CC(c3cccc(Cl)c3)=NO2)CN1C(=O)[C@@H](NC(=O)CC1C[C@@H](C)O[C@@H](C)C1)C(C)(C)C)C(=O)C(=O)NC1CC1 (stereo partly shown) [Compound 442],< 0.1,0.1 to 0.5
C=C[C@@H]1C[C@]1(NC(=O)[C@@H]1C[C@]2(CC(c3cccc(Cl)c3)=NO2)CN1C(=O)[C@@H](NC(=O)OC1CCCC1)C(C)(C)C)C(=O)O [Compound 443],> 0.5,> 0.5
CCC[C@H](NC(=O)[C@@H]1C[C@]2(CC(c3cccc(Cl)c3)=NO2)CN1C(=O)[C@@H](NC(=O)CC1CCC2(CC1)OCCO2)C(C)(C)C)C(=O)C(=O)NC1CC1 [Compound 445],< 0.1,0.1 to 0.5
CCC[C@H](NC(=O)[C@@H]1C[C@]2(CC(c3cccc(Cl)c3)=NO2)CN1C(=O)[C@@H](NC(=O)CC1CCCCC1)C(C)(C)C)C(=O)C(=O)NCCc1cccnc1 [Compound 447],0.1 to 0.5,> 0.5
CCC[C@H](NC(=O)[C@@H]1C[C@]2(CC(c3cccc(Cl)c3)=NO2)CN1C(=O)[C@@H](NC(=O)CC1CCCCC1)C(C)(C)C)C(=O)C(=O)N[C@H](C)CC [Compound 452],0.1 to 0.5,> 0.5
C=C[C@@H]1C[C@]1(NC(=O)[C@@H]1C[C@]2(CC(c3cccc(Cl)c3)=NO2)CN1C(=O)[C@@H](NC(=O)NC(C)(C)C)C(C)(C)C)C(=O)O [Compound 457],> 0.5,> 0.5
CCC[C@H](NC(=O)[C@@H]1C[C@]2(CC(c3cccc(Cl)c3)=NO2)CN1C(=O)[C@@H](NC(=O)CC1CCCCC1)C(C)(C)C)C(=O)C(=O)NCCC1C(=O)Nc2ccccc21 (stereo partly shown) [Compound 458],> 0.5,> 0.5
CCCC[C@H](NC(=O)CC1CCCCC1)C(=O)N1C[C@@]2(CC(c3cccc(Cl)c3)=NO2)C[C@H]1C(=O)N[C@@H](CCC)C(=O)C(=O)NC1CC1 [Compound 459],0.1 to 0.5,> 0.5
C=CCOC(=O)N[C@H](C(=O)N1C[C@@]2(CC(c3cccc(Cl)c3)=NO2)C[C@H]1C(=O)N[C@]1(C(=O)O)C[C@H]1C=C)C(C)(C)C [Compound 460],> 0.5,> 0.5
CCC[C@H](NC(=O)[C@@H]1C[C@]2(CC(c3cccc(Cl)c3)=NO2)CN1C(=O)[C@@H](NC(=O)CC1CCCCC1)C(C)(C)C)C(=O)C(=O)NCc1ccncc1 [Compound 461],0.1 to 0.5,> 0.5
CCC[C@H](NC(=O)[C@@H]1C[C@]2(CC(c3cccc(Cl)c3)=NO2)CN1C(=O)C(NS(=O)(=O)c1ccc(F)cc1)c1ccccc1)C(=O)C(=O)NC1CC1 (stereo partly shown) [Compound 466],> 0.5,> 0.5
CCC[C@H](NC(=O)[C@@H]1C[C@]2(CC(c3cccc(Cl)c3)=NO2)CN1C(=O)[C@@H](NC(=O)CC1CC2CCC1C2)C(C)(C)C)C(=O)C(=O)NC1CC1 (stereo partly shown) [Compound 467],< 0.1,0.1 to 0.5
CCC[C@H](NC(=O)[C@@H]1C[C@]2(CC(c3cccnc3OC)=NO2)CN1C(=O)[C@@H](NC(=O)CC1CCCCC1)C(C)(C)C)C(=O)C(=O)NC1CC1 [Compound 469],0.1 to 0.5,> 0.5
CCC[C@H](NC(=O)[C@@H]1C[C@]2(CC(c3cccc(Cl)c3)=NO2)CN1C(=O)[C@H](NS(=O)(=O)c1ccc(C)cc1)c1ccccc1)C(=O)C(=O)NC1CC1 [Compound 476],0.1 to 0.5,0.1 to 0.5
CCC[C@H](NC(=O)[C@@H]1C[C@]2(CC(c3cccc(Cl)c3)=NO2)CN1C(=O)CCN(c1ccccc1)S(=O)(=O)c1ccccc1)C(=O)C(=O)NC1CC1 [Compound 483],> 0.5,> 0.5
CCC[C@H](NC(=O)[C@@H]1C[C@]2(CC(c3cccc(Cl)c3)=NO2)CN1C(=O)[C@@H](NC(=O)CC1CCCCC1)C(C)(C)C)C(=O)C(=O)NCCOc1ccccc1OC [Compound 488],0.1 to 0.5,> 0.5
CCC[C@H](NC(=O)[C@@H]1C[C@]2(CC(c3cccc(Cl)c3)=NO2)CN1C(=O)[C@@H](NS(=O)(=O)c1ccc(OC)cc1)C(C)C)C(=O)C(=O)NC1CC1 [Compound 489],0.1 to 0.5,> 0.5
CCC[C@H](NC(=O)[C@@H]1C[C@]2(CC(c3cccc(Cl)c3)=NO2)CN1C(=O)[C@@H](NC(=O)CC1CCCCC1)C(C)(C)C)C(=O)C(=O)NC [Compound 493],< 0.1,0.1 to 0.5
CCC[C@H](NC(=O)[C@@H]1C[C@]2(CC(c3cccc(Cl)c3)=NO2)CN1C(=O)[C@@H](NC(=O)CC1CCCCC1)C(C)(C)C)C(=O)C(=O)N1CCCC1 [Compound 496],> 0.5,> 0.5

Structure (SMILES),Ki [1] [µM],Ki [2] [µM]
CCC[C@H](NC(=O)[C@@H]1C[C@]2(CC(c3cc(Cl)c4c(c3)CCO4)=NO2)CN1C(=O)[C@@H](NC(=O)CC1CCCCC1)C(C)(C)C)C(=O)C(=O)NC1CC1 [Compound 499],< 0.1,< 0.1
CCC[C@H](NC(=O)[C@@H]1C[C@]2(CC(c3ccc(OC)c(C)c3)=NO2)CN1C(=O)[C@@H](NC(=O)CC1CCCCC1)C(C)(C)C)C(=O)C(=O)NC1CC1 [Compound 500],< 0.1,0.1 to 0.5
CCC[C@H](NC(=O)[C@@H]1C[C@]2(CC(c3cccc(Cl)c3)=NO2)CN1C(=O)C(NS(=O)(=O)c1ccccc1)c1ccccc1)C(=O)C(=O)NC1CC1 (stereo partly shown) [Compound 501],> 0.5,> 0.5
CCC[C@H](NC(=O)[C@@H]1C[C@]2(CC(c3cccc(Cl)c3)=NO2)CN1C(=O)[C@@H](NC(=O)CC1CCCCC1)C(C)(C)C)C(=O)C(=O)N[C@@H](C)C(O)(c1ccccc1)c1ccccc1 [Compound 507],> 0.5,> 0.5
CCCNC(=O)C(=O)[C@H](CCC)NC(=O)[C@@H]1C[C@]2(CC(c3cccc(Cl)c3)=NO2)CN1C(=O)[C@@H](NC(=O)CC1CCCCC1)C(C)(C)C [Compound 508],0.1 to 0.5,0.1 to 0.5
C#CCCC(NC(=O)[C@@H]1C[C@]2(CC(c3cc(Cl)c(OC)cc3OC)=NO2)CN1C(=O)[C@@H](NC(=O)CC1CCOCC1)C(C)(C)C)C(=O)C(=O)NC1CC1 (stereo partly shown) [Compound 510],< 0.1,0.1 to 0.5
CCC[C@H](NC(=O)[C@@H]1C[C@]2(CC(c3cccc(Cl)c3)=NO2)CN1C(=O)[C@@H](NC(=O)CC1CCCCC1)C(C)(C)C)C(=O)C(=O)N1CC(F)(F)C1 [Compound 521],< 0.1,0.1 to 0.5
CCC[C@H](NC(=O)[C@@H]1C[C@]2(CC(c3ccccc3)=NO2)CN1C(=O)[C@@H](NC(=O)CC1CCCCC1)C(C)(C)C)C(=O)C(=O)NC1CC1 [Compound 531],0.1 to 0.5,0.1 to 0.5
CCC[C@H](NC(=O)[C@@H]1C[C@]2(CC(c3cccc(Cl)c3)=NO2)CN1C(=O)[C@@H](NS(=O)(=O)c1ccc(OC)cc1)C(C)CC)C(=O)C(=O)NC1CC1 (stereo partly shown) [Compound 534],> 0.5,> 0.5
CCC[C@H](NC(=O)[C@@H]1C[C@]2(CC(c3cccc(Cl)c3)=NO2)CN1C(=O)[C@@H](NC(=O)CC1CCCCC1)C(C)(C)C)C(=O)C(=O)N1CCC[C@H]1COC [Compound 537],> 0.5,> 0.5
CCC[C@H](NC(=O)[C@@H]1C[C@]2(CC(c3cccc(Cl)c3)=NO2)CN1C(=O)[C@@H](NC(=O)CC1CCCCC1)C(C)(C)C)C(=O)C(=O)NCCc1cccc(OC)c1 [Compound 540],0.1 to 0.5,0.1 to 0.5
CCC[C@H](NC(=O)[C@@H]1C[C@]2(CC(c3cccc(Cl)c3)=NO2)CN1C(=O)[C@@H](NC(=O)CC1(C)CCOCC1)C(C)(C)C)C(=O)C(=O)NC1CC1 [Compound 541],< 0.1,0.1 to 0.5
CCC[C@H](NC(=O)[C@@H]1C[C@]2(CC(c3cccc(Cl)c3)=NO2)CN1C(=O)[C@@H](NC(=O)CC1CCCCC1)C(C)(C)C)C(=O)C(=O)N[C@@H](C)c1ccccc1 [Compound 546],0.1 to 0.5,0.1 to 0.5
CCC[C@H](NC(=O)[C@@H]1C[C@]2(CC(CC)=NO2)CN1C(=O)[C@@H](NC(=O)NC(C)(C)C)C(C)(C)C)C(=O)C(=O)NC1CC1 [Compound 559],> 0.5,> 0.5
CCC[C@H](NC(=O)[C@@H]1C[C@]2(CC(c3cccc(Cl)c3)=NO2)CN1C(=O)[C@@H](NC(=O)CC1CCCCC1)C(C)(C)C)C(=O)C(=O)NC1CCS(=O)(=O)C1 (stereo partly shown) [Compound 565],> 0.5,> 0.5
CCC[C@H](NC(=O)[C@@H]1C[C@]2(CC(CC)=NO2)CN1C(=O)[C@@H](NC(=O)CC1CCOCC1)C(C)(C)C)C(=O)C(=O)NC1CC1 [Compound 566],> 0.5,> 0.5
CCC[C@H](NC(=O)[C@@H]1C[C@]2(CC(c3cccc(Cl)c3)=NO2)CN1C(=O)[C@@H](NC(=O)CC1CCCCC1)C(C)(C)C)C(=O)C(=O)NCc1nc2ccccc2[nH]1 [Compound 567],0.1 to 0.5,> 0.5
CCC[C@H](NC(=O)[C@@H]1C[C@]2(CC(c3cccc(Cl)c3)=NO2)CN1C(=O)[C@@H](NC(=O)CC1CCCCC1)C(C)(C)C)C(=O)C(=O)N1CCCCC1 [Compound 568],> 0.5,> 0.5
CCC[C@H](NC(=O)[C@@H]1C[C@]2(CC(c3cccc(Cl)c3)=NO2)CN1C(=O)[C@@H](NC(=O)CC1CCCCC1)C(C)(C)C)C(=O)C(=O)Nc1ccc(F)c(F)c1 [Compound 573],> 0.5,> 0.5
CCC[C@H](NC(=O)[C@@H]1C[C@]2(CC(c3cccc(Cl)c3)=NO2)CN1C(=O)C(C)N1Cc2ccccc2C1=O)C(=O)C(=O)NC1CC1 (stereo partly shown) [Compound 574],> 0.5,> 0.5
